Test results from EP0305968A2, “Compositions against protozoal diseases” (YEDA RESEARCH AND DEVELOPMENT COMPANY LIMITED, priority 1987, dated 1989).
Converted amounts (≈) assume the structure as drawn.

Test system: Entamoeba histolytica
Assay: Killing of Entamoeba histolytica trophozoites in culture, with particle ingestion
Type: cell-based
Conditions: drug alone
Excerpt: The particles were diol subsituted silica or aluminum- silicate particles Fig. 1), in which aldehyde groups can be formed by pretreatment with periodate that oxidizes vicinal hydroxyl groups and yields aldehyde groups. […] Schiff base was then interacted with sodium bisulfite to stabilize the bond (Fig. 2). […] One mg of dry weight silica particles contains 10⁷-10⁹ particles depending on the source.

Question: What does the source list for `Cc1ncc([N+](=O)[O-])n1CCO` [Metronidazole]?
Answer: EC95 (Entamoeba histolytica, over 24 h, read-out: concentration required to kill more than 95% of the trophozoites): 1 to 5 µg/mL (≈ 5.84 to 29.2 µM); time required to kill more than 95% of the trophozoites (1-5 µg/ml): over 24 h
